Publication PMC8119899, “A Single Mutation in the Outer Lipid-Facing Helix of a Pentameric Ligand-Gated Ion Channel Affects Channel Function Through a Radially-Propagating Mechanism” (Frontiers in Molecular Biosciences, 2021)
Numbering of substitutions follows the chain as printed.

Legend:
[1] = target: T1, 5-HT3A receptor K255Q (Mus musculus, UniProt P23979, K282Q); test: FlexStation membrane potential dye, 5-HT response, K255Q receptor in HEK293 cells; type: cell-based; conditions: mean and SEM, n ≥ 3
T1 construct: expressed in transfected cells; host or cells: Xenopus laevis oocytes (cRNA injection)
T1 sequence (P23979 24-489 K282Q): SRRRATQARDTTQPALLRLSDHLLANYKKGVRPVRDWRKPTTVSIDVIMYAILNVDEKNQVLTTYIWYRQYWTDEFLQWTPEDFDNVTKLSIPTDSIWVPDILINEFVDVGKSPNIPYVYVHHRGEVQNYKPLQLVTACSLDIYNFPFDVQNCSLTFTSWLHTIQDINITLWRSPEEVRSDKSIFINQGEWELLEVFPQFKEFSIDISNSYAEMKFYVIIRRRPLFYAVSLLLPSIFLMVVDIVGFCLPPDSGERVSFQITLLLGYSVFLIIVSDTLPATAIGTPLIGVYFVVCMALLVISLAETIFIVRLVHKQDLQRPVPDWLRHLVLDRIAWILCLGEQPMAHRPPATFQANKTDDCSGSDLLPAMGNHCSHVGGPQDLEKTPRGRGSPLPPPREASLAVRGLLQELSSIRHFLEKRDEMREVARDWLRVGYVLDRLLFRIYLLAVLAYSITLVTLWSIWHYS
Protocol: (§1) The mouse 5-HT3A cDNA (Q6J1J7) in pcDNA3.1 (for HEK cell transfection) or pGEMHE (for RNA production) was modified by QuikChange site-directed mutagenesis (Agilent Technologies) to create point mutants (verified by sequencing).
Human embryonic kidney (HEK) 293 cells were maintained at 37 °C at 5% CO2 in a humidified atmosphere, in Dulbecco's Modified Eagle's Medium/Nutrient Mix F12 (1:1) (Invitrogen, Paisley, UK) with GlutaMAX^TM and 10% fetal bovine serum (GE Healthcare) (DMEM/FBS) and passaged when confluent.
(§2) As described previously (Price and Lummis, [2005]) cells were incubated for 45 min with fluorescent membrane potential-sensitive dye (Membrane Potential Blue kit, Molecular Devices) diluted in Flex buffer (10 mM HEPES, 115 mM NaCl, 1 mM KCl, 1 mM CaCl2, 1 mM MgCl2, and 10 mM glucose, pH 7.4), and subsequently assayed at room temperature for 180 s, with readings every 2 s. […] (log of the concentration of ligand), a is the minimum response, b is the maximum response, and nH is the Hill slope.

[2] = target: T2, 5-HT3A receptor D238A (Mus musculus, UniProt P23979, D265A); test: FlexStation membrane potential dye, 5-HT response, D238A receptor in HEK293 cells; type: cell-based; design: expressed in transfected cells; host or cells: HEK293; key to pEC50: Mutants that did not respond in the functional assay are marked as non functional (NF)
T2 sequence (P23979 24-489 D265A): T1 sequence (P23979 24-489 K282Q) with D242A, Q259K
Protocol: as §1
Human embryonic kidney (HEK) 293 cells were maintained at 37 °C at 5% CO2 in a humidified atmosphere, in Dulbecco's Modified Eagle's Medium/Nutrient Mix F12 (1:1) (Invitrogen, Paisley, UK) with GlutaMAX^TM and 10% fetal bovine serum (GE Healthcare) (DMEM/FBS) and passaged when confluent. Five micrograms of WT or mutant 5-HT3A DNA and 30 μl polyethyleneamine (Polysciences) incubated for 10 min in 1 mL DMEM was added to 60% confluent HEK293 cells for transfection, and cells grown for 2 days before assays.
as §2

`NCCc1c[nH]c2ccc(O)cc12` [5-HT] was tested, and the nH [1] was 1.9± 0.2, the pEC50 [2] was “NF” and the “response to application of 5-HT” value [2] was “Neither Y441A nor D238A responded”.
